# Measurements as given in ChEMBL document CHEMBL5096151, “Phytocannabinoid Pharmacology: Medicinal Properties of Cannabis sativa Constituents Aside from the "Big Two"” (J Nat Prod, 2021).
# Legend:
# [1] = biological target: T1, Transient receptor potential cation channel subfamily V member 4 (Homo sapiens, UniProt Q9HBA0); experiment: Agonist activity at ionomycin-stimulated TRPV4 (unknown origin) activation
# [2] = biological target: Transient receptor potential cation channel subfamily M member 8 (Homo sapiens, UniProt Q7Z2W7); experiment: Antagonist activity at TRPM8 (unknown origin) ion channel
# Transient receptor potential cation channel subfamily M member 8, sequence (Q7Z2W7 whole entry): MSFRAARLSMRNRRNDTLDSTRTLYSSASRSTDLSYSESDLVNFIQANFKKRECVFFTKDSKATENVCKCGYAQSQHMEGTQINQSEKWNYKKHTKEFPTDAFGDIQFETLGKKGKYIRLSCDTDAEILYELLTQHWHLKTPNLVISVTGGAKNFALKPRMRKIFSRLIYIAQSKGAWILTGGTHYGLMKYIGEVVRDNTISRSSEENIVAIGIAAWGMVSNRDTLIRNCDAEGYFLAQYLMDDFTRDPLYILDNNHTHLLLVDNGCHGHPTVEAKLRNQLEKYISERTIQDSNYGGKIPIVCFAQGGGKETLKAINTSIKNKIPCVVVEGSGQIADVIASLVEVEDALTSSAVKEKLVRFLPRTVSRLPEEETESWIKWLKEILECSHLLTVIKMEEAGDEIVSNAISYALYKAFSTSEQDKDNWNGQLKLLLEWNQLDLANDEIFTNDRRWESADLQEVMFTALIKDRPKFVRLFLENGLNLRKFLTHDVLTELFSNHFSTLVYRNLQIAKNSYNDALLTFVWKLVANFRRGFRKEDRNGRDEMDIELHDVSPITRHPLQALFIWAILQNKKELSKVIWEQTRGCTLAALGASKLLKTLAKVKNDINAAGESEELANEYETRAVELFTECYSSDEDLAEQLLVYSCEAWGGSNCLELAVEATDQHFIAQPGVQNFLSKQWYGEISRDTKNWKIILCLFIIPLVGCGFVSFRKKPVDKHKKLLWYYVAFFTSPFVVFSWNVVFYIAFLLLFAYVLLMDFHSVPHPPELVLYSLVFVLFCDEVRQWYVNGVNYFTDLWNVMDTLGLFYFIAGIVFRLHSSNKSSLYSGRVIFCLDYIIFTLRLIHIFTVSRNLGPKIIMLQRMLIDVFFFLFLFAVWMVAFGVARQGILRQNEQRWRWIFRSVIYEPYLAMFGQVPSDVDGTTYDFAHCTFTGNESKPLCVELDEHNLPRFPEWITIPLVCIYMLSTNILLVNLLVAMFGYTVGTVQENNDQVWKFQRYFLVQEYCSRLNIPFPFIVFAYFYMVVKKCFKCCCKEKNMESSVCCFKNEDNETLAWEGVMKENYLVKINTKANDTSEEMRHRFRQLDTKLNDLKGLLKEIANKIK
# [3] = biological target: T2, Transient receptor potential cation channel subfamily A member 1 (Homo sapiens, UniProt O75762); experiment: Agonist activity at TRPA1 (unknown origin) activation assessed as efficacy relative to control; conditions: filed as agonist
# T2 sequence (O75762 whole entry): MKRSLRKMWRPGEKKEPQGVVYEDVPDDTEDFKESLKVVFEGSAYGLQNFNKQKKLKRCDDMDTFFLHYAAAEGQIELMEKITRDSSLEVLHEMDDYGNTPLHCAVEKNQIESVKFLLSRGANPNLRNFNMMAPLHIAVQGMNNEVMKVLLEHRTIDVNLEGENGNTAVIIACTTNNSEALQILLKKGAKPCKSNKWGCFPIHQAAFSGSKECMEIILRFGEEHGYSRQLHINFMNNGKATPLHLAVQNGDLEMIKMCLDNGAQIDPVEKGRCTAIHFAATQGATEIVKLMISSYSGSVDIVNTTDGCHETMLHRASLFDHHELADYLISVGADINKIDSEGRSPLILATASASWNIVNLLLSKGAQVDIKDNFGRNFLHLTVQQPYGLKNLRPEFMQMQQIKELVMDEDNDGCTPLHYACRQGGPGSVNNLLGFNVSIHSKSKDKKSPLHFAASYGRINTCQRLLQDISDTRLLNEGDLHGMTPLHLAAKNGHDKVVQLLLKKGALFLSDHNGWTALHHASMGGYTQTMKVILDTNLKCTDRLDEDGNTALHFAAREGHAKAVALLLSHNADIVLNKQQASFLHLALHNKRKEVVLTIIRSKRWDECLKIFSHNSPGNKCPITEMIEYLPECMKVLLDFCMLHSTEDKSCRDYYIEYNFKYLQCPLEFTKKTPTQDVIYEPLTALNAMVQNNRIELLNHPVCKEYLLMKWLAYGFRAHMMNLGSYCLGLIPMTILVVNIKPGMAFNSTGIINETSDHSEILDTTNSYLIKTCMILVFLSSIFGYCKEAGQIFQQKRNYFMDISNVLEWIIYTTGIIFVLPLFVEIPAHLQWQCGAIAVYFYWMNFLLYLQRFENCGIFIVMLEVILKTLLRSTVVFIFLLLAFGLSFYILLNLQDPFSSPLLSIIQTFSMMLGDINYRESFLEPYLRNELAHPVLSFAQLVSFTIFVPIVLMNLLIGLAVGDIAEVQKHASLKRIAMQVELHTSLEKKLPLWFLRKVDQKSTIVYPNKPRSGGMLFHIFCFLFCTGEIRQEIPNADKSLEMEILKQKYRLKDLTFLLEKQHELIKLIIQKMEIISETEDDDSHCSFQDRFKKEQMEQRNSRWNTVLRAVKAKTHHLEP
# [4] = biological target: T2, Transient receptor potential cation channel subfamily A member 1; experiment: Agonist activity at TRPA1 (unknown origin) activation
# [5] = biological target: T3, Transient receptor potential cation channel subfamily V member 3 (Homo sapiens, UniProt Q8NET8); experiment: Agonist activity at ionomycin-stimulated TRPV3 (unknown origin) activation
# T3 sequence (Q8NET8 whole entry): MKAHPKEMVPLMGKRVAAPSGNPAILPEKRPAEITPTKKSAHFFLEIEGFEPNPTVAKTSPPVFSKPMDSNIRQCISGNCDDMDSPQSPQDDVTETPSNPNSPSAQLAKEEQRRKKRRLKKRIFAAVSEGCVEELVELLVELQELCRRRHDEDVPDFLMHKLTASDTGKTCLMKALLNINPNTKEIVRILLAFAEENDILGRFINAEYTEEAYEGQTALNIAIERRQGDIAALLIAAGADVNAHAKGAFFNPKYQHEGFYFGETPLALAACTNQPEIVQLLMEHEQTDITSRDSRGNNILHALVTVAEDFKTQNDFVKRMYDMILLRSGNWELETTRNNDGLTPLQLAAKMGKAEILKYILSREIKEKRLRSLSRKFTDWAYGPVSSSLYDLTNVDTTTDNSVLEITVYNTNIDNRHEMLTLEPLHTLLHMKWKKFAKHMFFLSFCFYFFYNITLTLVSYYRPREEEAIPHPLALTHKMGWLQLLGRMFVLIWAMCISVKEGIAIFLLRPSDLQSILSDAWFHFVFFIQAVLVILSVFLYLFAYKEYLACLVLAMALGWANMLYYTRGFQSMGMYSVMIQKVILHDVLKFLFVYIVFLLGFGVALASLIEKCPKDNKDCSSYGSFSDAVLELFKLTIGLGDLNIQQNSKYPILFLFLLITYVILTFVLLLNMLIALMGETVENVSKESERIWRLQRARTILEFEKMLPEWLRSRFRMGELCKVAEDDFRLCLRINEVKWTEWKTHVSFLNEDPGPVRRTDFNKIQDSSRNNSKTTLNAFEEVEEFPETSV
# [6] = biological target: T4, Transient receptor potential cation channel subfamily V member 2 (Homo sapiens, UniProt Q9Y5S1); experiment: Agonist activity at ionomycin-stimulated TRPV2 (unknown origin) channel desensitization in presence of lysophosphatidylcholine
# T4 sequence (Q9Y5S1 whole entry): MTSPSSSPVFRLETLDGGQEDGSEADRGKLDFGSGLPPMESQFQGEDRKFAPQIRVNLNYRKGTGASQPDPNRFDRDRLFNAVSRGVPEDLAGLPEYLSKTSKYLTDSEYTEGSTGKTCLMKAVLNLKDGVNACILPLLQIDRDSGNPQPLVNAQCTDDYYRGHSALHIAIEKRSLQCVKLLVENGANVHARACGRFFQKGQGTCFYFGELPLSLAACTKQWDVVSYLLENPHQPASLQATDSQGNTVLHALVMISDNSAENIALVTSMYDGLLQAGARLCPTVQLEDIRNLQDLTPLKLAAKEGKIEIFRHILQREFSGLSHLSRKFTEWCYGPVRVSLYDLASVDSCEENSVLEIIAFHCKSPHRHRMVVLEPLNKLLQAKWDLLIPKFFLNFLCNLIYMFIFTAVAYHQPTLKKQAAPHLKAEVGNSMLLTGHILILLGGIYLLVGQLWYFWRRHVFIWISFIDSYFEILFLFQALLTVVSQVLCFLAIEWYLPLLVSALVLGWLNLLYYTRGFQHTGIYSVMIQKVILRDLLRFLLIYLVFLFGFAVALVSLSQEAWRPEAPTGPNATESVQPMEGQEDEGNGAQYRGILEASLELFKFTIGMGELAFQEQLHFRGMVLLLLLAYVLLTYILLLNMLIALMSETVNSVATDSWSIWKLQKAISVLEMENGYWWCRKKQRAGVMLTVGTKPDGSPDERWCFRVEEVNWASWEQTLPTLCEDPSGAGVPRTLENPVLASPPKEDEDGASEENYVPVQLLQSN
# [7] = biological target: T3, Transient receptor potential cation channel subfamily V member 3; experiment: Agonist activity at ionomycin-stimulated TRPV3 (unknown origin) channel desensitization in presence of carvacrol
# [8] = biological target: T1, Transient receptor potential cation channel subfamily V member 4; experiment: Agonist activity at ionomycin-stimulated TRPV4 (unknown origin) activation assessed as efficacy relative to control
# [9] = biological target: T5, Transient receptor potential cation channel subfamily V member 3 (Homo sapiens) (UniProt Q8NET8); experiment: Agonist activity at ionomycin-stimulated TRPV3 (unknown origin) activation assessed as efficacy relative to control
# T5 sequence (whole entry): T3 sequence (Q8NET8 whole entry)
# [10] = biological target: T1, Transient receptor potential cation channel subfamily V member 4; experiment: Agonist activity at ionomycin-stimulated TRPV4 (unknown origin) channel desensitization in presence of 4alphaPDD
# [11] = biological target: T2, Transient receptor potential cation channel subfamily A member 1; experiment: Agonist activity at TRPA1 (unknown origin) channel desensitization in presence of isothiocyanate
# [12] = biological target: T6, Transient receptor potential cation channel subfamily V member 2 (Homo sapiens) (UniProt Q9Y5S1); experiment: Agonist activity at ionomycin-stimulated TRPV2 (unknown origin) activation assessed as efficacy relative to control
# T6 sequence (whole entry): T4 sequence (Q9Y5S1 whole entry)
# [13] = biological target: T7, Transient receptor potential cation channel subfamily V member 1 (Homo sapiens, UniProt Q8NER1); experiment: Agonist activity at ionomycin-stimulated TRPV1 (unknown origin) activation
# T7 sequence (Q8NER1 whole entry): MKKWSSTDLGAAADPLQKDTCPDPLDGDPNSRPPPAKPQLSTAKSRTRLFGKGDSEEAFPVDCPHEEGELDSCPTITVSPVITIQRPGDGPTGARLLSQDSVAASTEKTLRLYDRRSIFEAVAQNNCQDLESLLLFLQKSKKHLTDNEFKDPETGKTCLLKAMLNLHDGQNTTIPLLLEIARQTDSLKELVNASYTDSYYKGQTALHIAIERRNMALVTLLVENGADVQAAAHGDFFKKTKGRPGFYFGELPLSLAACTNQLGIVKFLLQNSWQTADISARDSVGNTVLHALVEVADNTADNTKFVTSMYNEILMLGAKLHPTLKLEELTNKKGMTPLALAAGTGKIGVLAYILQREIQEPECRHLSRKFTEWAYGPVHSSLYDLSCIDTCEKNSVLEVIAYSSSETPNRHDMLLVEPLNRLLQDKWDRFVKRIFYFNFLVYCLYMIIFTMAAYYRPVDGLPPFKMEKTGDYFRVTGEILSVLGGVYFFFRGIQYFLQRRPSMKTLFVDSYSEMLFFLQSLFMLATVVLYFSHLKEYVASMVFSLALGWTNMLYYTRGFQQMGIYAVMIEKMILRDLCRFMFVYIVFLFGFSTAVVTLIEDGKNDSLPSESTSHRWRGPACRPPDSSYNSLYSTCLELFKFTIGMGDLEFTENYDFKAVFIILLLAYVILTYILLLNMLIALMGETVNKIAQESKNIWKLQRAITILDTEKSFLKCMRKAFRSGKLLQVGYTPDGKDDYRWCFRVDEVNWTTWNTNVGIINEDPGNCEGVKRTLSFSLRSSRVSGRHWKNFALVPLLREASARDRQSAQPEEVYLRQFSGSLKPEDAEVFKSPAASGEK
# [14] = biological target: T7, Transient receptor potential cation channel subfamily V member 1; experiment: Agonist activity at ionomycin-stimulated TRPV1 (unknown origin) activation assessed as efficacy relative to control
# [15] = biological target: T7, Transient receptor potential cation channel subfamily V member 1; experiment: Agonist activity at ionomycin-stimulated TRPV1 (unknown origin) channel desensitization in presence of capsaicin
# [16] = biological target: Transient receptor potential cation channel subfamily V member 6 (Homo sapiens, UniProt Q9H1D0); experiment: Inhibition of TRPV6 channel (unknown origin) by Patch-clamp assay
# [17] = biological target: 5-hydroxytryptamine receptor 1A (Homo sapiens) (UniProt P08908); experiment: Displacement of [35S]GTPgammaS from 5HT1A in […] by measuring efficacy incubated for 60 mins by radioligand binding assay relative to control; assay type: cell-based
# 5-hydroxytryptamine receptor 1A (Homo sapiens), sequence (P08908 whole entry): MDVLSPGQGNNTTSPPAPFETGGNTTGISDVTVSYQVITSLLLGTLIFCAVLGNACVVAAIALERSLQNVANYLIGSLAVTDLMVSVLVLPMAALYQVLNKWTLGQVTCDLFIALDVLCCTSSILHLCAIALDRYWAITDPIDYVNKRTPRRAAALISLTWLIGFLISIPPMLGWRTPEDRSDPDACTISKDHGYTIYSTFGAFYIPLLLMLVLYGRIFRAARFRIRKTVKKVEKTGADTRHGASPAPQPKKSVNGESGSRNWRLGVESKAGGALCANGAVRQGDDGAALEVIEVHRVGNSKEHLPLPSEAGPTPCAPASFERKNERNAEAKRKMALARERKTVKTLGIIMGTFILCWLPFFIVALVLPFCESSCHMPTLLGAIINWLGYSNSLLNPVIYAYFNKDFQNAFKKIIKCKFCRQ
# Cannabinoid receptor 2 [18] = biological target: T8, Cannabinoid receptor 2 (Homo sapiens, UniProt P34972); experiment: Agonist activity at human CB2 receptor transfected in CHO cells assessed as inhibition of cyclic AMP production; assay type: functional, cell-based
# T8 sequence (P34972 whole entry): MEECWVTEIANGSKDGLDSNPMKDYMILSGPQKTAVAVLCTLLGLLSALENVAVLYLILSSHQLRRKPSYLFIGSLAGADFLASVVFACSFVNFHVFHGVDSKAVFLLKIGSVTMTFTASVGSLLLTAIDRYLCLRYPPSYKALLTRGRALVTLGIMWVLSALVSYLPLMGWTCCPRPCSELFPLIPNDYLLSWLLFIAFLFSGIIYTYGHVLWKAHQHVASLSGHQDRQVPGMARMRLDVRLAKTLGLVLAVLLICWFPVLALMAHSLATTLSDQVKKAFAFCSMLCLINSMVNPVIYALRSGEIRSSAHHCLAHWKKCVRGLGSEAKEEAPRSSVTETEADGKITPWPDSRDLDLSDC
# Cannabinoid receptor 2 [19] = biological target: T8, Cannabinoid receptor 2; experiment: Agonist activity at CB2 receptor (unknown origin) expressed in CHO cell membranes assessed as increase in [35S]GTPgammaS binding by measuring efficacy incubated for 60 mins by liquid scintillation spectrometry analysis relative to control; assay type: functional; conditions: Membrane, filed as agonist
# [20] = biological target: 5-hydroxytryptamine receptor 1A (Rattus norvegicus, UniProt P19327); experiment: Displacement of [35S]GTPgammaS from 5HT1A in Sprague-Dawley rat brainstem incubated for 60 mins by radioligand binding assay; assay type: tissue-based
# [21] = biological target: T4, Transient receptor potential cation channel subfamily V member 2; experiment: Agonist activity at ionomycin-stimulated TRPV2 (unknown origin) activation
# [22] = biological target: 5-hydroxytryptamine receptor 1A (Homo sapiens, UniProt P08908); experiment: Displacement of [35S]GTPgammaS from 5HT1A in […] incubated for 60 mins by radioligand binding assay; assay type: cell-based
# [23] = biological target: T2, Transient receptor potential cation channel subfamily A member 1; experiment: Agonist activity at TRPA1 (unknown origin) channel desensitization in presence of icilin
# Cannabinoid receptor 1 [24] = biological target: Cannabinoid receptor 1 (Homo sapiens, UniProt P21554); experiment: Binding affinity to CB1 (unknown origin) receptor assessed as inhibition constant
# [25] = biological target: Transient receptor potential cation channel subfamily V member 5 (Homo sapiens, UniProt Q9NQA5); experiment: Inhibition of TRPV5 channel (unknown origin) by Patch-clamp assay
# [26] = biological target: T7, Transient receptor potential cation channel subfamily V member 1; experiment: Agonist activity at TRPV1 (unknown origin) ion channel
# Cannabinoid receptor 2 [27] = biological target: T8, Cannabinoid receptor 2; experiment: Agonist activity at CB2 receptor (unknown origin) expressed in CHO cell membranes assessed as increase in [35S]GTPgammaS binding incubated for 60 mins by liquid scintillation spectrometry analysis; assay type: functional, Membrane
# Cannabinoid receptor 2 [28] = biological target: T8, Cannabinoid receptor 2; experiment: Inhibition of human CB2 receptor; assay type: functional; conditions: concentration not given here
# [29] = biological target: T2, Transient receptor potential cation channel subfamily A member 1; experiment: Agonist activity at TRPA1 (unknown origin) ion channel
# Cannabinoid receptor 1 [30] = biological target: Cannabinoid receptor 1 (Mus musculus, UniProt P47746); experiment: Agonist activity at CB1 receptor in albino MF1 mouse vas deferens assessed as inhibition of electrically evoked vas deferens contraction by incubated for 13 mins followed by electrical stimulation for 2 mins; assay type: functional
# [31] = biological target: 5-hydroxytryptamine receptor 1A (Rattus norvegicus) (UniProt P19327); experiment: Displacement of [35S]GTPgammaS from 5HT1A in Sprague-Dawley rat brainstem by measuring efficacy incubated for 60 mins by radioligand binding assay relative to control; assay type: tissue-based
# [32] = biological target: T9, G-protein coupled receptor 55 (Homo sapiens, UniProt Q9Y2T6); experiment: Antagonist activity at GPR55 (unknown origin) expressed in HEK293 cells assessed as LPI-stimulated ERK1/2 phosphorylation by measuring efficacy relative to control; assay type: functional, cell-based; conditions: filed as antagonist
# T9 sequence (Q9Y2T6 whole entry): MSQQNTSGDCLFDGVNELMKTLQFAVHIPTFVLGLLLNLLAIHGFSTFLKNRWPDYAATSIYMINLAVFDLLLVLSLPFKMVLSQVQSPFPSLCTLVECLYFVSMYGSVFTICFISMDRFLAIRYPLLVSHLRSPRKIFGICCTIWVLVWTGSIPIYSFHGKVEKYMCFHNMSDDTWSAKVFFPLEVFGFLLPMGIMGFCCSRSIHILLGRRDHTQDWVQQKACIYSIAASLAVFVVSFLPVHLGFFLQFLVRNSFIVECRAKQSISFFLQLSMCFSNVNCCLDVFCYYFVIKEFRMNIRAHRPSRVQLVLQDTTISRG
# [33] = biological target: T9, G-protein coupled receptor 55; experiment: Antagonist activity at GPR55 (unknown origin) expressed in HEK293 cells assessed as LPI-stimulated ERK1/2 phosphorylation; assay type: functional, cell-based
# T1 sequence (Q9HBA0 whole entry): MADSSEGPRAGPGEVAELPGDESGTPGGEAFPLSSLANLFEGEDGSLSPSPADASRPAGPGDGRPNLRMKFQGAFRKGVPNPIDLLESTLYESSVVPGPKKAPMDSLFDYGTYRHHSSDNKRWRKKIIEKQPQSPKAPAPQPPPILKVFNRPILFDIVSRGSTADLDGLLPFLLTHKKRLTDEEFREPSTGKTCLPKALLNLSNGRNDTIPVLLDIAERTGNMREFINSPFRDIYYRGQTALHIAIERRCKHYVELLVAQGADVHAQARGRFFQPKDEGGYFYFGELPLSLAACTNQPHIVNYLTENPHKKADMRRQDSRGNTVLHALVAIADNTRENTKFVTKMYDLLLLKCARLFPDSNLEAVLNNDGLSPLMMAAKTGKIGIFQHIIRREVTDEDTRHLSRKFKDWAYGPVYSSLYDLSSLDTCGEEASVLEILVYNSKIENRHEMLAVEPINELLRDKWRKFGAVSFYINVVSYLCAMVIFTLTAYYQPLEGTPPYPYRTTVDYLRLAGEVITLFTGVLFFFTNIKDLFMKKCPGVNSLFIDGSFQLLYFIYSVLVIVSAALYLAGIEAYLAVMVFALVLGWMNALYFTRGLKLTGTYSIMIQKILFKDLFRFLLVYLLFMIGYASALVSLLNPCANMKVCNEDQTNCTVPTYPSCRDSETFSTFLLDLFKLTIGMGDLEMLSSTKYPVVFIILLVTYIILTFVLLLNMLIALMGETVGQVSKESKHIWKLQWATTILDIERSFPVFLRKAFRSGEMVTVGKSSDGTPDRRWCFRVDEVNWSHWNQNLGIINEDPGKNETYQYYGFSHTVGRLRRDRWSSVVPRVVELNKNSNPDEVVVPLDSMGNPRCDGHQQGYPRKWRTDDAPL
smiles,measurement,setting,value
CCCCCc1cc(O)c2c(c1)OC(C)(CCC=C(C)C)C=C2 (stereo not drawn) [CANNABICHROMENE],EC50,[1],600 nM
same,IC50,[2],40700 nM
same,Efficacy,[3],119%
same,EC50,[4],90 nM
same,EC50,[5],1900 nM
same,IC50,[6],6500 nM
same,IC50,[7],201000 nM
same,Efficacy,[8],23%
same,Efficacy,[9],20%
same,IC50,[10],9900 nM
same,IC50,[11],370 nM
same,Efficacy,[12],< 10%
same,EC50,[13],24200 nM
same,Efficacy,[14],< 10%
same,IC50,[15],> 50000 nM
CCCc1cc(O)c2c(c1)OC(C)(C)[C@@H]1CCC(C)=C[C@@H]21 [TETRAHYDROCANNABIVARIN],IC50,[16],9400 nM
same,Efficacy,[17],134%
same,EC50,Cannabinoid receptor 2 [18],38 nM
same,EC50,[1],6400 nM
same,IC50,[2],20 nM
same,Efficacy,Cannabinoid receptor 2 [19],40%
same,EC50,[20],5.4 nM
same,Efficacy,[3],243%
same,EC50,[21],4100 nM
same,EC50,[4],1500 nM
same,EC50,[5],3800 nM
same,EC50,[22],28 nM
same,IC50,[6],800 nM
same,IC50,[23],870 nM
same,Ki,Cannabinoid receptor 1 [24],1000 nM
same,IC50,[25],4800 nM
same,EC50,[26],200 nM
same,IC50,[7],3000 nM
same,EC50,Cannabinoid receptor 2 [27],98 nM
same,Efficacy,[8]; filed as agonist,60%
same,Efficacy,[9]; filed as agonist,72%
same,inhibition,Cannabinoid receptor 2 [28],0.143%
same,IC50,[10],3200 nM
same,EC50,[29],70 nM
same,IC50,[11],3070 nM
same,EC50,Cannabinoid receptor 1 [30],12700 nM
same,Efficacy,[12]; filed as agonist,74%
same,EC50,[13],1500 nM
same,Efficacy,[31],35%
same,Efficacy,[14]; filed as agonist,68%
same,Efficacy,[32],61%
same,EC50,[33],880 nM
same,IC50,[15],1300 nM
CCCc1cc(O)c2c(c1)OC(C)(C)c1ccc(C)cc1-2,EC50,[1],7300 nM
same,Efficacy,[3],123%
same,EC50,[21],3100 nM
same,EC50,[4],200 nM
same,EC50,[5],3500 nM
same,IC50,[6],2200 nM
same,IC50,[23],500 nM
same,IC50,[7],1600 nM
same,Efficacy,[8],37%
same,Efficacy,[9]; filed as agonist,78%
same,IC50,[10],4000 nM
same,IC50,[11],170 nM
same,Efficacy,[12]; filed as agonist,79%
same,Efficacy,[14]; filed as agonist,50%
same,IC50,[15],11900 nM
